From patent publication US5688957A, “[(3"-thioxacyclohex-1"-enyl)]-but-3'-ene-1'-ynyl]aryl and [(3"-thioxacyclohex-1"-enyl)]-but-3'-ene-1'-ynyl]heteroaryl carboxylic acids and esters having retinoid-like biological activity” (Allergan, priority 1995, dated 1997)

System: ornithine decarboxylase (ODC)
Assay: inhibition of TPA induction of ornithine decarboxylase (ODC) activity
Assay type: in vivo
Conditions: for IC60: concentration which results in 60% inhibition; for IC80: IC80 column
Excerpt: The retinoid-like activity of these compounds is confirmed through the classic measure of retinoic acid activity involving the effects of retinoic acid on ornithine decarboxylase. The original work on the correlation between retinoic acid and decrease in cell proliferation was done by Verma & Boutwell, Cancer Research, 1977, 37,2196-2201. That reference discloses that ornithine decarboxylase (ODC) activity increased precedent to polyamine biosynthesis. It has been established elsewhere that increases in polyamine synthesis can be correlated or associated with cellular proliferation. Thus, if ODC activity could be inhibited, cell hyperproliferation could be modulated. Although all causes for ODC activity increases are unknown, it is known that 12-0-tetradecanoylphorbol-13-acetate (TPA) induces ODC activity. Retinoic acid inhibits this induction of ODC activity by TPA. […] The results of this assay for certain exemplary compounds of the invention are shown in Table 1 below, wherein either the IC80 or IC60 value for each exemplary compound is indicated in namolar concentration units. (As is known in the art, the IC60 value is that concentration of the compound (in nanomols) which results in 60% inhibition.)

SMILES | IC60 | IC80
CCOC(=O)c1ccc(C#C/C=C/C2=C(C)SCCC2(C)C)cc1 [Compound 1, Ethyl 4-[4'-(2",6",6",-Trimethyl-3"-thioxacyclohex-1"-enyl)-but-3'(E)-ene-1'-ynyl]benzoate] | 3.8 nM | 
CC1=C(/C=C/C#Cc2ccc(C(=O)O)cc2)C(C)(C)CCS1 [Compound 2, 4-[4'-(2",6",6"-Trimethyl-3"-thioxacyclohex-1"-enyl) -but-3'(E)-ene-1'-ynyl]benzoic Acid] | 1.4 nM | 
CC1=C(/C=C/C#Cc2ccc(C(=O)O)cn2)C(C)(C)CCS1 [Compound 4, 6-[4'-(2",6",6"-Trimethyl-3"-thioxacyclohex-1"-enyl)-but-3'(E) -ene-1'-ynyl]nicotinic Acid] |  | 33.6 nM
CCOC(=O)c1ccc(C#C/C=C/C2=C(C)SCCC2(C)C)nc1 [Compound 3, Ethyl 6-[4'-(2",6",6"-Trimethyl-3"-thioxacyclohex-1"-enyl)-but-3'(E)-ene-1'-ynyl]nicotinate] |  | 28 nM
